Experimental data: patent US20250352528A1, “TOPICAL ROSIGLITAZONE FOR RADIATION-INDUCED SKIN INJURY” (The Brigham and Women's Hospital, Inc., priority 2022, published 2025)

How the values were obtained:
[1] = test system: adipose-derived mesenchymal stem cells (AdMSCs) treated with TGFβ1; assay: Adipogenic and fibrogenic gene expression (RT-PCR) in AdMSCs treated with TGFβ1 with or without rosiglitazone; type: cell-based, mouse; details: TGFβ1 10 ng/ml + rosiglitazone 10 μM, 7 days, v. TGFβ1 without rosiglitazone
Experimental: Previous studies have established that PPARg agonists reverse the effects of pro-fibrotic transforming growth factor-beta (TGFβ) ligands.
Mice adipose-derived stem cells (ADSCs) were isolated from adult male C57BL/6J mice inguinal fat pad. ADSCs were cultured in DMEM/F12 (Sigma, Logan, UT) supplemented with 10% Fetal Bovine Serum (FBS) (Sigma) and antibiotics (penicillin and streptomycin, Hyclone). ADSCs were maintained at 37° C. under a 5% CO2 atmosphere. For rosiglitazone treatment experiment, ADSCs were treated with/without recombinant TGFβ1 (10 ng/ml) (Invitrogen, USA) and rosiglitazone (10 μM) for 7 days after seeded ([…]) in 6-well plates.
Total RNA was isolated from ADSCs using TRI reagent and RNA extraction kit (Zymo Research, Irvine, CA). First-strand cDNA was synthesized by using iScript RT-PCR mix (BioRad, Hercules, CA) according to user manual. SYBR green qPCR master Mix (BioRad, Hercules, CA), primers, and cDNA were mixed in a final reaction volume of 10 μl. Real time polymerase chain reaction (RT-PCR) were performed by using Applied Biosystems 7300 Fast Real-Time PCR System (AB) according to the manufacturer's instructions.

[2] = test system: hindlimb secondary lymphedema after lymphadenectomy; assay: Mouse hind limb lymphedema model (lymphadenectomy): limb measurements and histology; type: in vivo; details: rosiglitazone 10 mg/kg i.p. twice a week; for Dermal thickness / Overall skin thickness / Subdermal layer (fibroadipose tissue) thickness: H&E
Description: Evans blue (Sigma) (4% in PBS) was filtered and injected into mouse foot pad to stain lymph nodes in hind limb. Mouse hind limb secondary lymphedema was induced by surgical excision of the ipsilateral superficial inguinal, popliteal, deep inguinal lymph nodes, and the femoral lymphatic vessel. During surgical procedures, electrocauterization were used to prevent bleeding.
(§1) A total of 32 mice underwent lymphedema surgery were randomly assigned into two groups, lymphedema group and rosiglitazone group (n=16). Rosiglitazone (Combi-Blocks, San Diego, USA) was dissolved in DMSO at the concentration of 25 mg/ml, and was diluted in corn oil to the final concentration of 2.5 mg/ml before injection. Mice in rosiglitazone group were intraperitoneally injected with rosiglitazone (10 mg/kg) twice a week from the day of surgery (day 0, 3, 7, 10, 14, 17). Mice in lymphedema group were injected with corn oil only at same time point. 8 mice in lymphedema group and rosiglitazone group were sacrificed on day 7 (n=8 per group), the rest of them were sacrificed on day 21 (n=8 per group). Another 18 mice were randomly divided into three groups, normal control group, lymphedema group, and rosiglitazone group, skin cells from these mice were isolated and used for flow cytometry analysis at day 7 (n=3 per group per staining).
Sacrifice was performed via CO2 asphyxiation. Skin and muscle of hind limb were harvested, fixed in 10% formalin for 48 h followed by 70% ethanol for histological assessment. Formalin-fixed tissues were then dehydrated, embedded in paraffin, and sectioned with 5-micron-thickness.
Sections were stained either with Hematoxylin and Eosin (H&E) or Picrosirius Red according to standard protocol, and used to assess the overall skin thickness, dermal thickness, fibroadipose tissue thickness, and fibrosis, respectively. Quantitative histological analysis was performed using samples from day 7 and 21.
Images were captured by using Olympus BX53 (UCMAD3, T7, Japan) and all-in-one Keyence (Itasca, IL, USA) microscopes and assessed by ImageJ (version 1.52a; […]) by two independent researchers under blinded conditions. Fibrosis was assessed with the image thresholding plugin in ImageJ software, normalization is based on the length of the section (v1.52a; […]).

PDGFRα+ cells = assay: Flow cytometry of hindlimb skin after lymphadenectomy; type: in vivo, mouse
Experimental: as §1
Flow cytometry was performed using single-cell suspensions obtained from skin and subcutaneous tissue. 1×1 cm tissue harvested from the mice hindlimb were minced with scissors and digested by using collagenase type I (1 mg/ml) and dispase (2 mg/ml) at 37° C. on a shaker. All suspensions were filtered through 100 μm filters.
Cells were then stained with following conjugated antibodies: APC-PDGFRα (1:100), APC-PDGFRβ (1:100), HCS LipidTOX red neutral lipid stains (1:200), APC-CD45 (1:150), PE-CD3 (1:150), PerCP-Cy5-CD4 (1:150). Flow cytometry was performed on the Beckman Cytoflex FCM using CytExpert software (Beckman Coulter, CA, USA) and data were analyzed with FlowJo software (Tree Star; Ashland, OR).

[3] = systemic rosiglitazone [Ref. 20,21]; cited from earlier work
[4] = 1 week after lymphadenectomy, normalized to uninjured hindlimb
[5] = 1 cm×1 cm area of skin, day 7 after lymphadenectomy

CN(CCOc1ccc(CC2SC(=O)NC2=O)cc1)c1ccccn1 (stereo not shown) [rosiglitazone]
Adipoq expression level [1]: 2.40
Col1a1 expression level [1]: 0.76
Ctgf expression level [1]: 0.80
Fn1 expression level [1]: 0.82
Lpl expression level [1]: 2.53
Pdgfra expression level [1]: 0.72
Normalized edema size [2, 4]: 1.08
Normalized hindlimb circumference [2, 4]: 1.31
Dermal thickness ([2]; 1 week): 438.54
Overall skin thickness ([2]; 1 week): 924.66 μm
Subdermal layer (fibroadipose tissue) thickness ([2]; 1 week): 486.12 μm
Normalized hindlimb fibrosis (picrosirius red) ([2]; 1 week): 0.130
Dermal thickness ([2]; 3 week): 403.76
Overall skin thickness ([2]; 3 week): 646.12 μm
Subdermal layer (fibroadipose tissue) thickness ([2]; 3 week): 242.36 μm
Normalized hindlimb fibrosis (picrosirius red) ([2]; 3 week): 0.128
Absolute number of PDGFRα+LipidTOX+ cells (PDGFRα+ cells; [5]): 862
FSC^high PDGFRα+LipidTOX+ cells (cell size) (PDGFRα+ cells; [5]): 73
PDGFRα+ cells, absolute count (PDGFRα+ cells; [5]): 0.9×10^3
PDGFRα+LipidTOX+ cells as a proportion of total PDGFRα cells (PDGFRα+ cells; day 7 after lymphadenectomy, results section): 86%
Share of PDGFRα+ cells that were LipidTOX+ (PDGFRα+ cells; rosiglitazone-treated samples): over 90%
Adverse effects [3]: fluid retention, heart failure, and fractures
